The record followed here is US4145444A, “Anti-inflammatory agent of benzoyl derivative” (priority 1977, dated 1979).

Like-named read-outs stand apart in the source and are kept apart here.

For assay [1], the system named is hind paws of male rats. Put plainly: Anti-inflammatory effect: acute carragheenin edema method. It is filed as in vivo. The conditions noted are these: Rattus norvegicus, read-out: Anti-inf.: edema inhibition rate. How it is done:
The edema was induced by subcutaneous injection of 1% carragheenin suspension in saline to the hind paws of male rats weighting 150 to 180 g. Each sample was orally given at the dosage of 100 mg/kg just before the inoculation of carragheenin.

The subject of assay [2] is thrombus. Put plainly: Inhibiting effect on thrombosis (by-pass between left juglar vein and right carotid artery, silk thread). The format is in vivo, SD type male rates. The conditions noted are these: Rattus norvegicus, read-out: Thrombosis inh.: thrombosis inhibition rate. How it is done:
The inhibiting effects of the samples of the invention on thrombosis were tested by the following test method.
A 0.5 ml of 50 μ/ml of the heparin physiological saline was added through the polyethylene tube before the first blood circulation. After the blood circulation for 15 minutes, the circulation was stopped in the middle of the tubing at artery side with a pinch cock.
Then, 0.2 ml of the heparin physiological saline was added to remove the blood coagulates on the tubing wall and another new polyethylene tubing filled with the heparin solution and containing a piece of new silk thread was attached between the venous and artery tubing ends.
The blood circulation was reestablished by opening the pinch cock. After 15 minutes, the wet weight of thrombus on the silk thread was similarly measured.
In the same manner, the third circulation was performed and wet weight of thrombus measured.
The amount of thrombus was given by the equation A. [formula] Each sample was suspended in an aqueous solution of sodium carboxymethyl cellulose and the oral dose of the suspension (100 mg/kg) was performed at 5 hours before the first blood circulation.
The amount of thrombus after the oral dose of the sample was calculated in the same manner as that of control circulations.
The thrombosis inhibition rate was given by the equation B. [formula]

The subject of assay [3] is platelet. The experiment in a line: Blood platelet aggregation inhibiting effect (collagen-induced). It is filed as cell-based, rabbits. The conditions noted are these: Oryctolagus cuniculus, Platelet; 10^-4 mole, collagen inducer, rabbit PRP; read-out: Blood platelet agg. inh.: percentage inhibition of platelet aggregation. An excerpt: Male rabbits (Japan original white strain 3.3 to 3.6 kg) were anesthetized with Thiopental sodium and blood was sampled from the carotid artery.

Assay [4] has as its system male mice. Put plainly: Analgesic effect: painful stretchings following intraperitoneal 0.7% acetic acid. The conditions noted are these: Mus musculus, po, read-out: Analgesic: percentage diminition of times of painful stretching.
Experimental: Each sample was orally administered in the dosage of 100 mg/kg before injection of acetic acid.
The mark [5] stands for this setting: 100 mg/kg oral, carragheenin edema, male rats (Table 2).
Where [6] appears, read: 100 mg/kg oral, 5 hours before first blood circulation, rats.

For `Cc1ccc(C)c(C(=O)c2ccccc2)c1` [compound 38], the results for the inhibition in vivo at 100 mg/kg in assay [1] (setting [5]), in assay [2] (setting [6]) and in assay [4] were 37.5%, 8.3% and 18%, respectively. For the same molecule, the inhibition at 100 µM in assay [3] was determined as 20.9%.

As for `COc1ccc(C(=O)Cc2ccccc2)cc1` [compound 57], the inhibition in vivo at 100 mg/kg in assay [1] (setting [5]) was 16.1%; in assay [2] (setting [6]), 6.5%; in assay [4] it was 10.3%. Moreover, the inhibition at 100 µM in assay [3] is 12.5%.

Regarding `CCCCCc1ccc(C(=O)c2ccc(OC)cc2)cc1` [compound 45], the inhibition in vivo at 100 mg/kg is 37.8% in assay [1] (setting [5]), 30.8% in assay [2] (setting [6]) and 12.5% in assay [4]. For the same molecule, in assay [3], the inhibition at 100 µM was determined as 17.7%.

Regarding `O=C(Cc1ccccc1)c1ccccc1` [compound 47], the inhibition in vivo at 100 mg/kg amounted to 20.9% in assay [1] (po); 15.6% in assay [2] (po, 5 h); 13.1% in assay [4]. The inhibition at 100 µM in assay [3] came to 18.3%.

In the case of `CCCCc1ccc(C(=O)c2ccc(C)cc2)cc1` [compound 35], the figures for the inhibition in vivo at 100 mg/kg in assay [1] (setting [5]), in assay [2] (setting [6]) and in assay [4] were 48.5%, 2.65% and 17.8%, respectively. Also, the inhibition at 100 µM in assay [3] is 11.3%.

On to `CC(C)(C)c1ccc(C(=O)c2ccccc2)cc1` [compound 22], for which the figures for the inhibition in vivo at 100 mg/kg in assay [1] (setting [5]), in assay [2] (setting [6]) and in assay [4] were 36.4%, 7.9% and 8.2%, respectively. In addition, in assay [3], the inhibition at 100 µM was 9.5%.

As to `CCCCCCCc1ccc(C(=O)c2ccc(CCCC)cc2)cc1` [compound 100], the inhibition in vivo at 100 mg/kg in assay [1] (setting [5]) came out at 14%; in assay [2] (setting [6]), 27.6%; in assay [4] it was 10%. Further, the inhibition at 100 µM in assay [3] came out at 22.4%.

As to `CCCc1ccc(C(=O)c2ccc(Cl)cc2)cc1` [compound 63], the results for the inhibition in vivo at 100 mg/kg in assay [1] (setting [5]), in assay [2] (setting [6]) and in assay [4] were 11.8%, 6.2% and 8.2%, respectively. The inhibition at 100 µM in assay [3] amounted to 15.6%.

Consider `CCCc1ccc(C(=O)c2ccc(C)cc2)cc1` [compound 34], for which the inhibition in vivo at 100 mg/kg in assay [1] (setting [5]) was 43.1%; in assay [2] (setting [6]), 24.5%; in assay [4], 12.1%. In addition, the inhibition at 100 µM in assay [3] amounted to 16.4%.

Consider `CCc1ccc(C(=O)c2ccc(CC)cc2)cc1` [compound 106], for which the values for the inhibition in vivo at 100 mg/kg in assay [1] (setting [5]), in assay [2] (setting [6]) and in assay [4] were 26.4%, 20.2% and 7.3%, respectively. Also, the inhibition at 100 µM in assay [3] came out at 20.3%.

Consider `Cc1ccc(C(=O)c2ccccc2F)c(C)c1` [compound 10], for which the inhibition in vivo at 100 mg/kg in assay [1] (setting [5]) amounted to 47.5%; in assay [2] (setting [6]), 29.7%; in assay [4], 20.3%. Moreover, the inhibition at 100 µM in assay [3] worked out at 18.5%.

`CCCCc1ccc(C(=O)c2ccc(Cl)cc2)cc1` [compound 64]: the inhibition in vivo at 100 mg/kg in assay [1] (setting [5]) was 21.4%; in assay [2] (setting [6]), 15.9%; in assay [4] it was 6.6%. Besides, the inhibition at 100 µM in assay [3] came to 28.5%.

With `CCCc1ccc(C(=O)c2ccc(C)cc2C)cc1` [compound 96], the inhibition in vivo at 100 mg/kg in assay [1] (setting [5]) was found to be 26.1%; in assay [2] (setting [6]), 36.7%; in assay [4], 18.9%. Also, the inhibition at 100 µM in assay [3] worked out at 28.5%.

`CCCCCCc1ccc(C(=O)c2ccccc2)cc1` [compound 24]: the inhibition in vivo at 100 mg/kg in assay [1] (setting [5]) was found to be 37.6%; in assay [2] (setting [6]), 24.3%; in assay [4], 47.7%. Besides, the inhibition at 100 µM in assay [3] amounted to 10.5%.

With `CCCCCc1ccc(C(=O)c2ccccc2)cc1` [compound 23], the inhibition in vivo at 100 mg/kg in assay [1] (setting [5]) was determined as 50.4%; in assay [2] (setting [6]), 22.3%; in assay [4], 10.1%. In addition, the inhibition at 100 µM in assay [3] came to 13.8%.

With `CCCCCCc1ccc(C(=O)C(=O)c2ccccc2)cc1` [compound 56], the values for the inhibition in vivo at 100 mg/kg in assay [1] (setting [5]), in assay [2] (setting [6]) and in assay [4] were 14.9%, 15.1% and 20.5%, respectively. In assay [3], the inhibition at 100 µM is 20.3%.

In the case of `CCCCc1ccc(C(=O)c2ccccc2Cl)cc1` [compound 44], the inhibition in vivo at 100 mg/kg in assay [1] (setting [5]) is 57.7%; in assay [2] (setting [6]), 35.6%; in assay [4], 15.6%. The inhibition at 100 µM in assay [3] was 10.5%.

`CCCCc1ccc(CCCC)c(C(=O)c2ccccc2)c1` [compound 77]: the inhibition in vivo at 100 mg/kg in assay [1] (setting [5]) was found to be 13.2%; in assay [2] (setting [6]) it was 17.5%; in assay [4], 10.8%. The inhibition at 100 µM in assay [3] amounted to 25.1%.

Regarding `CCCCCCCc1ccc(C(=O)c2ccccc2)cc1` [compound 25], the inhibition in vivo at 100 mg/kg in assay [1] (setting [5]) was found to be 40.8%; in assay [2] (setting [6]), 22.1%; in assay [4], 48.6%. The inhibition at 100 µM in assay [3] was 7.8%.

As to `CCCCCc1ccc(C(=O)c2ccc(C)cc2)cc1` [compound 84], the values for the inhibition in vivo at 100 mg/kg in assay [1] (setting [5]), in assay [2] (setting [6]) and in assay [4] were 28.4%, 16% and 15.3%, respectively. Moreover, in assay [3], the inhibition at 100 µM was found to be 8.6%.

`CCCCc1ccc(C(=O)c2ccccc2)cc1` [compound 19]: the inhibition in vivo at 100 mg/kg in assay [1] (setting [5]) was 63.4%; in assay [2] (setting [6]) it was 7.9%; in assay [4] it was 30.1%. Moreover, the inhibition at 100 µM in assay [3] was 18.6%.

For `CCCCCc1ccc(C(=O)c2ccccc2C)cc1` [compound 41], the results for the inhibition in vivo at 100 mg/kg in assay [1] (setting [5]), in assay [2] (setting [6]) and in assay [4] were 47.4%, 28.5% and 14.6%, respectively. Besides, the inhibition at 100 µM in assay [3] is 14.4%.

In the case of `Cc1ccc(C(=O)c2ccc(C)cc2)cc1` [compound 83], the inhibition in vivo at 100 mg/kg in assay [1] (setting [5]) was determined as 20%; in assay [2] (setting [6]) it was 19.3%; in assay [4], 12.1%. Further, in assay [3], the inhibition at 100 µM was determined as 27.6%.

Regarding `CCCCCCCCCc1ccc(C(=O)c2ccccc2)cc1` [compound 70], the figures for the inhibition in vivo at 100 mg/kg in assay [1] (setting [5]), in assay [2] (setting [6]) and in assay [4] were 23.2%, 10% and 7%, respectively. Also, the inhibition at 100 µM in assay [3] was found to be 17.2%.

Take `C=Cc1ccc(C(=O)c2ccccc2)cc1` [compound 82]: the results for the inhibition in vivo at 100 mg/kg in assay [1] (setting [5]), in assay [2] (setting [6]) and in assay [4] were 23.8%, 30.1% and 13.5%, respectively. For the same molecule, the inhibition at 100 µM in assay [3] came out at 20.5%.

In the case of `CCCCCOc1ccc(C(=O)Cc2ccccc2)cc1` [compound 59], the results for the inhibition in vivo at 100 mg/kg in assay [1] (setting [5]), in assay [2] (setting [6]) and in assay [4] were 20.7%, 14.1% and 22.8%, respectively. The inhibition at 100 µM in assay [3] turned out to be 25.6%.

Turning to `CC(C)Cc1ccc(C(=O)c2ccccc2)cc1` [compound 67], the inhibition in vivo at 100 mg/kg stood at 20% in assay [1] (setting [5]), 17.3% in assay [2] (setting [6]) and 19.1% in assay [4]. Moreover, the inhibition at 100 µM in assay [3] was 18.5%.

As to `COc1ccc(OC)c(C(=O)c2ccccc2)c1` [compound 75], the inhibition in vivo at 100 mg/kg in assay [1] (setting [5]) is 29.5%; in assay [2] (setting [6]) it was 29.2%; in assay [4], 22%. For the same molecule, the inhibition at 100 µM in assay [3] worked out at 30.7%.

With `CCCc1ccc(C(=O)c2c(C)cc(C)cc2C)cc1` [compound 97], the inhibition in vivo at 100 mg/kg was determined as 13% in assay [1] (setting [5]), 37.3% in assay [2] (setting [6]) and 14.7% in assay [4]. Besides, in assay [3], the inhibition at 100 µM came out at 26.8%.

Regarding `CCCc1ccc(C(=O)c2cccc(C)c2)cc1` [compound 87], the inhibition in vivo at 100 mg/kg was 18.7% in assay [1] (setting [5]), 25.8% in assay [2] (setting [6]) and 11.2% in assay [4]. For the same molecule, in assay [3], the inhibition at 100 µM was found to be 30.1%.

As to `O=C(C(=O)c1ccccc1)c1ccccc1` [compound 53], the inhibition in vivo at 100 mg/kg in assay [1] (po) turned out to be 20.3%; in assay [2] (po, 5 h), 19.2%; in assay [4] it was 14.2%. The inhibition at 100 µM in assay [3] was determined as 10.1%.

As for `CCc1cc(CC)c(C(=O)c2ccccc2)c(CC)c1` [compound 13], the inhibition in vivo at 100 mg/kg in assay [1] (setting [5]) amounted to 38.9%; in assay [2] (setting [6]), 20.5%; in assay [4], 15.8%. In addition, the inhibition at 100 µM in assay [3] is 14.3%.

For `CCCc1ccc(C(=O)c2ccccc2)cc1` [compound 20], the inhibition in vivo at 100 mg/kg was 42.7% in assay [1] (setting [5]), 4.1% in assay [2] (setting [6]) and 17.3% in assay [4]. Besides, the inhibition at 100 µM in assay [3] was found to be 36.6%.

Consider `CCCCc1ccc(CCCC)c(C(=O)c2ccc(C)cc2)c1` [compound 17], for which the inhibition in vivo at 100 mg/kg in assay [1] (setting [5]) stood at 36.3%; in assay [2] (setting [6]), 19.5%; in assay [4] it was 10.3%. Moreover, the inhibition at 100 µM in assay [3] stood at 17.3%.
